In BindingDB's records for doi:10.1021/jm301144g (Human Biomolecular Research Institute, 2012):

Molecular target: TGF-beta receptor type-2 (Homo sapiens, UniProt P37173)
Experiment: Inhibition of TGBR2 signaling in human HEK293T cells assessed as inhibition of SMAD activation after 2 to 22 hrs by dual Luciferase Assay

TGF-beta receptor type-2, sequence (P37173 whole entry): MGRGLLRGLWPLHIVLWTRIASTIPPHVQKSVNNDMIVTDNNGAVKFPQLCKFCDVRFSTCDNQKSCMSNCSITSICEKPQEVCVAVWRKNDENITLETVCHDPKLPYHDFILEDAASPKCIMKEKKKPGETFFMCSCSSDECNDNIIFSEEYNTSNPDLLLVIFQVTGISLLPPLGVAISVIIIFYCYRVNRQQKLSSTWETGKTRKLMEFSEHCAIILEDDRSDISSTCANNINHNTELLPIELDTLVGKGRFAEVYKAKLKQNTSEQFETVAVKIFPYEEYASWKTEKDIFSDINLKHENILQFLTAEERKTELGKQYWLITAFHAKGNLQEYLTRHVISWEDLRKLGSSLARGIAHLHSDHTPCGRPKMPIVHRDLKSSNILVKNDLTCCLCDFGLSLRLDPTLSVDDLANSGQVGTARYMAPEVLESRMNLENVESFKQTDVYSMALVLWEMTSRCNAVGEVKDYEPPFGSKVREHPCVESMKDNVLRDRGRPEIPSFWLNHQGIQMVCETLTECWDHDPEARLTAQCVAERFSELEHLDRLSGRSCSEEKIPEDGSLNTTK

CCOC(=O)C1=C(C)N=C2CC(C)(C)CC(=O)C2C1c1ccc(-c2ccccc2)cc1 (stereo unspecified)
IC50: 460 nM
